# Measured values as given in ChEMBL document CHEMBL6177998, “Rational Design of Dual Degraders by Incorporating Molecular Glue Structural Features into PROTAC Degraders” (J Med Chem, 2025).
# Key:
# Assay type in all cases: cell-based
# [1] = test system: Protein cereblon/Androgen receptor (Homo sapiens), P10275+Q96SW2 [UNDEFINED MUTATION]; experiment: PROTAC activity at CRBN/Androgen receptor splice variant 7 in human 22Rv1 cells assessed as induction of AR-V7 degradation at 5 uM incubated for 24 hrs by Western blot analysis relative to control
# [2] = molecular target: T1, Protein cereblon/Androgen receptor (Homo sapiens, UniProt P10275+Q96SW2); experiment: PROTAC activity at CRBN/AR in human 22Rv1 cells assessed as induction of AR degradation at 5 uM incubated for 24 hrs by Western blot analysis relative to control
# [3] = molecular target: T2, Protein cereblon/Eukaryotic peptide chain release factor GTP-binding subunit ERF3A (Homo sapiens, UniProt Q96SW2+P15170); experiment: Molecular glue activity at CRBN/GSPT1 in human 22Rv1 cells assessed as induction of GSPT1 degradation at 1 uM incubated for 24 hrs by Western blot analysis relative to control
# [4] = test system: Protein cereblon/Androgen receptor (Homo sapiens), P10275+Q96SW2 [UNDEFINED MUTATION]; experiment: PROTAC activity at CRBN/Androgen receptor splice variant 7 in human VCaP cells assessed as induction of AR-V7 degradation at 5 uM incubated for 24 hrs by Western blot analysis relative to control
# [5] = molecular target: T2, Protein cereblon/Eukaryotic peptide chain release factor GTP-binding subunit ERF3A; experiment: Molecular glue activity at CRBN/GSPT1 in human 22Rv1 cells assessed as induction of GSPT1 degradation at 5 uM incubated for 24 hrs by Western blot analysis relative to control
# [6] = test system: Protein cereblon/Androgen receptor (Homo sapiens), P10275+Q96SW2 [UNDEFINED MUTATION]; experiment: PROTAC activity at CRBN/Androgen receptor splice variant 7 in human VCaP cells assessed as induction of AR-V7 degradation at 1 uM incubated for 24 hrs by Western blot analysis relative to control
# [7] = molecular target: T1, Protein cereblon/Androgen receptor; experiment: PROTAC activity at CRBN/AR in human 22Rv1 cells assessed as induction of AR degradation at 1 uM incubated for 24 hrs by Western blot analysis relative to control
# [8] = molecular target: T1, Protein cereblon/Androgen receptor; experiment: PROTAC activity at CRBN/AR in human VCaP cells assessed as induction of AR degradation at 5 uM incubated for 24 hrs by Western blot analysis relative to control
# [9] = molecular target: T1, Protein cereblon/Androgen receptor; experiment: PROTAC activity at CRBN/AR in human VCaP cells assessed as induction of AR degradation at 1 uM incubated for 24 hrs by Western blot analysis relative to control
# [10] = test system: Protein cereblon/Androgen receptor (Homo sapiens), P10275+Q96SW2 [UNDEFINED MUTATION]; experiment: PROTAC activity at CRBN/Androgen receptor splice variant 7 in human 22Rv1 cells assessed as induction of AR-V7 degradation at 1 uM incubated for 24 hrs by Western blot analysis relative to control
# [11] = molecular target: T2, Protein cereblon/Eukaryotic peptide chain release factor GTP-binding subunit ERF3A; experiment: Molecular glue activity at CRBN/GSPT1 in human 22Rv1 cells assessed as induction of GSPT1 degradation at 0.01 uM incubated for 24 hrs by Western blot analysis relative to control
# [12] = test system: Protein cereblon/Androgen receptor (Homo sapiens), P10275+Q96SW2 [UNDEFINED MUTATION]; experiment: PROTAC activity at CRBN/Androgen receptor splice variant 7 in human VCaP cells assessed as induction of AR-V7 degradation at 0.01 uM incubated for 24 hrs by Western blot analysis relative to control
# [13] = test system: Protein cereblon/Androgen receptor (Homo sapiens), P10275+Q96SW2 [UNDEFINED MUTATION]; experiment: PROTAC activity at CRBN/Androgen receptor splice variant 7 in human 22Rv1 cells assessed as induction of AR-V7 degradation at 0.01 uM incubated for 24 hrs by Western blot analysis relative to control
# [14] = molecular target: T1, Protein cereblon/Androgen receptor; experiment: PROTAC activity at CRBN/AR in human 22Rv1 cells assessed as induction of AR degradation at 0.1 uM incubated for 24 hrs by Western blot analysis relative to control
# [15] = molecular target: T1, Protein cereblon/Androgen receptor; experiment: PROTAC activity at CRBN/AR in human VCaP cells assessed as induction of AR degradation at 0.1 uM incubated for 24 hrs by Western blot analysis relative to control
# [16] = molecular target: T2, Protein cereblon/Eukaryotic peptide chain release factor GTP-binding subunit ERF3A; experiment: Molecular glue activity at CRBN/GSPT1 in human 22Rv1 cells assessed as induction of GSPT1 degradation at 0.1 uM incubated for 24 hrs by Western blot analysis relative to control
# [17] = test system: Protein cereblon/Androgen receptor (Homo sapiens), P10275+Q96SW2 [UNDEFINED MUTATION]; experiment: PROTAC activity at CRBN/Androgen receptor splice variant 7 in human VCaP cells assessed as induction of AR-V7 degradation at 0.1 uM incubated for 24 hrs by Western blot analysis relative to control
# [18] = test system: Protein cereblon/Androgen receptor (Homo sapiens), P10275+Q96SW2 [UNDEFINED MUTATION]; experiment: PROTAC activity at CRBN/Androgen receptor splice variant 7 in human 22Rv1 cells assessed as induction of AR-V7 degradation at 0.1 uM incubated for 24 hrs by Western blot analysis relative to control
# [19] = molecular target: T1, Protein cereblon/Androgen receptor; experiment: PROTAC activity at CRBN/AR in human 22Rv1 cells assessed as induction of AR degradation at 0.01 uM incubated for 24 hrs by Western blot analysis relative to control
# [20] = molecular target: T1, Protein cereblon/Androgen receptor; experiment: PROTAC activity at CRBN/AR in human VCaP cells assessed as induction of AR degradation at 0.01 uM incubated for 24 hrs by Western blot analysis relative to control
# T2 sequence (P15170 whole entry, looked up, canonical isoform): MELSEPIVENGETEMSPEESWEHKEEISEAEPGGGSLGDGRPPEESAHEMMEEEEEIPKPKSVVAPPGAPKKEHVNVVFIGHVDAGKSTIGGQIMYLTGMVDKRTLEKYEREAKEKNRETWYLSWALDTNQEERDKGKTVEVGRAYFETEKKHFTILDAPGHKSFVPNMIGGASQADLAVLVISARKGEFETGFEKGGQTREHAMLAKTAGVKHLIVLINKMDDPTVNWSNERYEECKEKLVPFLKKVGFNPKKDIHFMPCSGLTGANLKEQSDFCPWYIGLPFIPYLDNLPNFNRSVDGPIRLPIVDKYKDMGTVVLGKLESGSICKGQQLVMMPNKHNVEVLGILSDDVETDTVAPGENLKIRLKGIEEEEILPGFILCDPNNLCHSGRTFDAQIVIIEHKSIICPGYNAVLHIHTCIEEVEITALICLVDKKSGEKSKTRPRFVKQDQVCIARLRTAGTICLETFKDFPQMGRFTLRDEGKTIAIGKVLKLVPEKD
# T2 sequence (Q96SW2 whole entry, looked up, canonical isoform): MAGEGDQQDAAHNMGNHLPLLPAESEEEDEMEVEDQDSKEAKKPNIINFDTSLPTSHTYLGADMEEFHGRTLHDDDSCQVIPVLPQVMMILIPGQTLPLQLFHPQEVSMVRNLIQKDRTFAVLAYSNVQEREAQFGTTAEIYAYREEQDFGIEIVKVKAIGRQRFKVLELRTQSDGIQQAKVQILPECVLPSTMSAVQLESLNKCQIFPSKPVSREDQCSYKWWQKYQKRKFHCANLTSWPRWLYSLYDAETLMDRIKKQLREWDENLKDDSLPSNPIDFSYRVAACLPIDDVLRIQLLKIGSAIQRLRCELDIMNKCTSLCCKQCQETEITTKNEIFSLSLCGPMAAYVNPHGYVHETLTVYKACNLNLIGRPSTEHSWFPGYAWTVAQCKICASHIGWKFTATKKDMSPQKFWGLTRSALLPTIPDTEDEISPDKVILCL
# Chain of Protein cereblon/Androgen receptor (Homo sapiens), P10275+Q96SW2 [UNDEFINED MUTATION] (P10275 whole entry, looked up, change not shown, canonical isoform): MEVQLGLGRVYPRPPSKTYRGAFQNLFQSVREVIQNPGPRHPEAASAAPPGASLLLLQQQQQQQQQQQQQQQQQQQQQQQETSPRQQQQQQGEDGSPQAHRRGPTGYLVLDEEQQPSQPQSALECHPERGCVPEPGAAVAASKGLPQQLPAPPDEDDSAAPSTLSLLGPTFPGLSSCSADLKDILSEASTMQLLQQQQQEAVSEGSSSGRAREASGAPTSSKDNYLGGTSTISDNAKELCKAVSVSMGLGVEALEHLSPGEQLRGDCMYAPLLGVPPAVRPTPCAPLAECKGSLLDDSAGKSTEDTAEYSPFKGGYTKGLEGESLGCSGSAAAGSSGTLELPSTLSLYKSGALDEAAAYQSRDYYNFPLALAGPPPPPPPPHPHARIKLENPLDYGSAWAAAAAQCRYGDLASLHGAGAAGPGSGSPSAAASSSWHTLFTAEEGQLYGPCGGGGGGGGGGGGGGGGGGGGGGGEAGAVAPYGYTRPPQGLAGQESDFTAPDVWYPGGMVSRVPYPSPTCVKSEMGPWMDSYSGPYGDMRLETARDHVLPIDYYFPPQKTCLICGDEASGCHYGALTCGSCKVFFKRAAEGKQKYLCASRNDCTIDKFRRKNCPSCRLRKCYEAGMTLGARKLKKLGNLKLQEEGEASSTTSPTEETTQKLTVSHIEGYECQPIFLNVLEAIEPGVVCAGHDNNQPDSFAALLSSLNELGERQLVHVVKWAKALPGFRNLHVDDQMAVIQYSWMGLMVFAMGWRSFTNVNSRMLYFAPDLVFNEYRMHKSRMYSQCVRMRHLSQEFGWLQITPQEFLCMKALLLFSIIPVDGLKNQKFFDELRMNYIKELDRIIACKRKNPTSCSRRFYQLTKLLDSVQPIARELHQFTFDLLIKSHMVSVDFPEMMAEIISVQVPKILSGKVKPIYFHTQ
# Chain of Protein cereblon/Androgen receptor (Homo sapiens), P10275+Q96SW2 [UNDEFINED MUTATION] (Q96SW2 whole entry, looked up, change not shown, canonical isoform): as the sequence (Q96SW2 whole entry, looked up, canonical isoform) above
# T1 sequence (P10275 whole entry, looked up): as the sequence (P10275 whole entry, looked up, change not shown, canonical isoform) above
# T1 sequence (Q96SW2 whole entry, looked up): as the sequence (Q96SW2 whole entry, looked up, canonical isoform) above
Compound,Activity [1],Activity [2],Activity [3],Activity [4],Activity [5],Activity [6],Activity [7],Activity [8],Activity [9],Activity [10],Activity [11],Activity [12],Activity [13],Activity [14],Activity [15],Activity [16],Activity [17],Activity [18],Activity [19],Activity [20]
CC(C)(c1ccc(OCC2CCN(C(=O)CCCCCOc3ccc4c(c3)C(=O)N(C3CCC(=O)NC3=O)C4=O)CC2)cc1)c1ccc(OC[C@H](O)CCl)cc1 (stereo not given in full),67.4%,43.6%,86.1%,34%,95.5%,< 5%,5.8%,20%,5.9%,29.9%,,,,,,,,,,
COc1ccc(C(C)(C)c2cc(Cl)c(OCC3CCN(C(=O)CCCCCNc4cc5c(cc4F)C(=O)N(C4CCC(=O)NC4=O)C5=O)CC3)c(C#N)c2)cc1 (stereo not given),,,,,,,,,,,74.6%,< 5%,< 5%,< 5%,17.3%,88.6%,10%,25.2%,< 5%,25.1%
COc1ccc(C(C)(C)c2cc(Cl)c(OCC3CCN(C(=O)CCCCCNc4ccc5c(c4)C(=O)N(C4CCC(=O)NC4=O)C5=O)CC3)c(Cl)c2)cc1 (stereo not given),,,,,,,,,,,72.9%,< 5%,11.5%,72.9%,69.8%,93.3%,69.1%,57.3%,39.7%,< 5%
CC(C)(c1ccc(OCC2CCN(C3CN(C(=O)CCCCNc4ccc5c(c4)C(=O)N(C4CCC(=O)NC4=O)C5=O)C3)CC2)cc1)c1ccc(OC[C@H](O)CCl)cc1 (stereo not given in full),< 5%,< 5%,33.8%,6.4%,41.2%,14.9%,13.5%,40.9%,17.7%,5%,,,,,,,,,,
CC(C)(c1ccc(OCC2CCN(C3CN(C(=O)CCCNc4ccc5c(c4)C(=O)N(C4CCC(=O)NC4=O)C5=O)C3)CC2)cc1)c1ccc(OC[C@H](O)CCl)cc1 (stereo not given in full),< 5%,10.2%,57.5%,24.2%,76.7%,< 5%,12.1%,25.4%,6.8%,5%,,,,,,,,,,
CC(C)(c1ccc(OCC2CCN(C(=O)CCCCNc3ccc4c(c3)C(=O)N(C3CCC(=O)NC3=O)C4=O)CC2)cc1)c1ccc(OC[C@H](O)CCl)cc1 (stereo not given in full),9.3%,21.6%,86%,8.2%,89.3%,5.9%,8.6%,13.7%,8.5%,11.8%,,,,,,,,,,
CC(C)(c1ccc(OCC2CCN(C(=O)CCCCC#Cc3ccc4c(c3)C(=O)N(C3CCC(=O)NC3=O)C4=O)CC2)cc1)c1ccc(OC[C@H](O)CCl)cc1 (stereo not given in full),14.6%,< 5%,25.5%,26.4%,30.7%,< 5%,13.7%,18.6%,< 5%,34.8%,,,,,,,,,,
CC(C)(c1ccc(OCC2CCN(C(=O)CCCCCCNc3cccc4c3C(=O)N(C3CCC(=O)NC3=O)C4=O)CC2)cc1)c1ccc(OC[C@H](O)CCl)cc1 (stereo not given in full),11%,38%,36.5%,9.2%,39.8%,< 5%,10.1%,< 5%,< 5%,< 5%,,,,,,,,,,
CC(C)(c1ccc(OCC2CCN(C(=O)CCCCCCCNc3cccc4c3C(=O)N(C3CCC(=O)NC3=O)C4=O)CC2)cc1)c1ccc(OC[C@H](O)CCl)cc1 (stereo not given in full),52.3%,25%,32.3%,14.3%,45.8%,8.4%,7.8%,< 5%,< 5%,12.5%,,,,,,,,,,
CC(C)(c1ccc(OCC2CCN(C(=O)CCCCCNc3cccc4c3C(=O)N(C3CCC(=O)NC3=O)C4=O)CC2)cc1)c1ccc(OC[C@H](O)CCl)cc1 (stereo not given in full),25.5%,19.7%,65.1%,36.1%,68.9%,21.6%,11.7%,11.7%,< 5%,28.4%,,,,,,,,,,
CC(C)(c1ccc(OCC2CCN(C(=O)CCCC#Cc3ccc4c(c3)C(=O)N(C3CCC(=O)NC3=O)C4=O)CC2)cc1)c1ccc(OC[C@H](O)CCl)cc1 (stereo not given in full),18.1%,< 5%,28.5%,5.2%,34%,7.4%,24.6%,< 5%,8.4%,48.2%,,,,,,,,,,
CC(C)(c1ccc(OCC2CCN(C(=O)CCCCNc3cccc4c3C(=O)N(C3CCC(=O)NC3=O)C4=O)CC2)cc1)c1ccc(OC[C@H](O)CCl)cc1 (stereo not given in full),27.1%,22.3%,39.6%,< 5%,47.1%,< 5%,12.4%,< 5%,< 5%,20.1%,,,,,,,,,,
CC(C)(c1ccc(OCC2CCN(C(=O)CCCCCCOc3ccc4c(c3)C(=O)N(C3CCC(=O)NC3=O)C4=O)CC2)cc1)c1ccc(OC[C@H](O)CCl)cc1 (stereo not given in full),33.9%,16.4%,77.9%,< 5%,92.7%,< 5%,20.1%,8%,< 5%,34.4%,,,,,,,,,,
CC(C)(c1ccc(OCC2CCN(C3CN(C(=O)CNc4ccc5c(c4)C(=O)N(C4CCC(=O)NC4=O)C5=O)C3)CC2)cc1)c1ccc(OC[C@H](O)CCl)cc1 (stereo not given in full),< 5%,< 5%,37%,< 5%,60.9%,< 5%,< 5%,< 5%,< 5%,< 5%,,,,,,,,,,
CC(C)(c1ccc(OCC2CCN(C(=O)CCCCCCNc3ccc4c(c3)C(=O)N(C3CCC(=O)NC3=O)C4=O)CC2)cc1)c1ccc(OC[C@H](O)CCl)cc1 (stereo not given in full),30.7%,33.1%,81%,< 5%,79.8%,< 5%,14.4%,14.2%,< 5%,8.6%,,,,,,,,,,
CC(C)(c1ccc(OCC2CCN(C(=O)CCCCOc3ccc4c(c3)C(=O)N(C3CCC(=O)NC3=O)C4=O)CC2)cc1)c1ccc(OC[C@H](O)CCl)cc1 (stereo not given in full),56%,32.3%,29.6%,< 5%,44.4%,< 5%,< 5%,< 5%,< 5%,33.3%,,,,,,,,,,
CC(C)(c1ccc(OCC2CCN(C3CN(C(=O)CCNc4ccc5c(c4)C(=O)N(C4CCC(=O)NC4=O)C5=O)C3)CC2)cc1)c1ccc(OC[C@H](O)CCl)cc1 (stereo not given in full),< 5%,< 5%,14.4%,11.9%,15.5%,20%,< 5%,19.8%,32.7%,5%,,,,,,,,,,
CC(C)(c1ccc(OCC2CCN(C(=O)CCCCCCCNc3ccc4c(c3)C(=O)N(C3CCC(=O)NC3=O)C4=O)CC2)cc1)c1ccc(OC[C@H](O)CCl)cc1 (stereo not given in full),< 5%,7.5%,37.2%,7%,42%,< 5%,< 5%,10.2%,4.9%,< 5%,,,,,,,,,,
